Data reported in PubChem BioAssay (NCI).
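Tested at 5 concentrations; 48 h exposure; 96-well plates; endpoints linearly interpolated, else capped at highest concentration. Here, GI50 denotes the concentration required for 50% inhibition of growth. TGI: concentration producing complete growth inhibition.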

Columns and labels:
Assay in all cases: growth of human tumour cells (NCI), 48 h
[1] = system: K-562 leukemia
[2] = system: U251 CNS
[3] = system: MCF7 breast
[4] = system: MOLT-4 leukemia
[5] = system: IGROV1 ovarian
[6] = system: NCI-H522 lung
[7] = system: NCI-H226 lung
[8] = system: LOX IMVI melanoma
[9] = system: BT-549 breast
[10] = system: TK-10 renal
[11] = system: OVCAR-4 ovarian
[12] = system: 786-0 renal
[13] = system: MDA-MB-435
[14] = system: SR leukemia
[15] = system: A498 renal
[16] = system: SF-539 CNS
[17] = system: CAKI-1 renal
[18] = system: OVCAR-8 ovarian
[19] = system: RPMI-8226 leukemia
[20] = system: SNB-75 CNS
[21] = system: NCI/ADR-RES ovarian
[22] = system: KM12 colon
[23] = system: HCC-2998 colon
[24] = system: SW-620 colon
[25] = system: HL-60(TB) leukemia
[26] = system: CCRF-CEM leukemia
[27] = system: SNB-19 CNS
[28] = system: MALME-3M melanoma
[29] = system: A549 NSCLC

Structure (SMILES): Nc1ncc(-c2ccc3ncnc(N4CCc5cc(F)c(Cl)cc54)c3c2)cc1CO
- GI50 [1]: 887 nM
- TGI [1]: > 23200 nM
- GI50 [2]: 1430 nM
- TGI [2]: 7950 nM
- GI50 [3]: 210 nM
- TGI [3]: 2520 nM
- GI50 [4]: 525 nM
- TGI [4]: 4720 nM
- GI50 [5]: 178 nM
- TGI [5]: 724 nM
- GI50 [6]: 419 nM
- TGI [6]: 3020 nM
- GI50 [7]: 570 nM
- TGI [7]: 9140 nM
- GI50 [8]: 747 nM
- TGI [8]: 3940 nM
- GI50 [9]: 321 nM
- TGI [9]: 2050 nM
- GI50 [10]: 231 nM
- TGI [10]: 2030 nM
- GI50 [11]: 615 nM
- TGI [11]: 5230 nM
- GI50 [12]: 474 nM
- TGI [12]: 5000 nM
- GI50 [13]: 418 nM
- TGI [13]: 1990 nM
- GI50 [14]: 475 nM
- TGI [14]: 4660 nM
- GI50 [15]: 110 nM
- TGI [15]: 611 nM
- GI50 [16]: 1270 nM
- TGI [16]: 4450 nM
- GI50 [17]: 282 nM
- TGI [17]: 3760 nM
- GI50 [18]: 883 nM
- TGI [18]: 10400 nM
- GI50 [19]: 395 nM
- TGI [19]: 3720 nM
- GI50 [20]: 50.6 nM
- TGI [20]: 1110 nM
- GI50 [21]: 1660 nM
- TGI [21]: 9100 nM
- GI50 [22]: 1650 nM
- TGI [22]: 8230 nM
- GI50 [23]: 1200 nM
- TGI [23]: 5120 nM
- GI50 [24]: 1640 nM
- TGI [24]: 9480 nM
- GI50 [25]: 1070 nM
- TGI [25]: 4500 nM
- GI50 [26]: 1580 nM
- TGI [26]: 11200 nM
- GI50 [27]: 1430 nM
- TGI [27]: 12900 nM
- GI50 [28]: 186 nM
- TGI [28]: 1420 nM
- GI50 [29]: 522 nM
- TGI [29]: 3210 nM
